System: 252836-082-R-J2-PDC tumor spheroids, viability
Experiment: Anticancer human tumor 252836-082-R-J2-PDC patient-derived head and neck squamous cell carcinoma cell line growth inhibition [PI3K]
Conditions: spheroids with HUVEC and MSC; for IC50: curve of first compound; for viability, T/C: stronger effect = lower value
In short: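 Three cell types, namely tumor cells, endothelial cells and mesenchymal stem cells, formed each spheroid. Combinations with four PI3K inhibitors were screened at clinically achievable concentrations decreasing by half-log, and spheroid viability was recorded.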

[1] = second compound 0.0316 µM, first compound 0.0316 µM
[2] = second compound 0.0316 µM, first compound 0.1 µM
[3] = second compound 0.0316 µM, first compound 0.316 µM
[4] = second compound 0.0316 µM, first compound 1 µM
[5] = second compound 0.0316 µM, first compound 3.16 µM
[6] = second compound 0.0316 µM, first compound 10 µM
[7] = second compound 0.1 µM, first compound 0.0316 µM
[8] = second compound 0.1 µM, first compound 0.1 µM
[9] = second compound 0.1 µM, first compound 0.316 µM
[10] = second compound 0.1 µM, first compound 1 µM
[11] = second compound 0.1 µM, first compound 3.16 µM
[12] = second compound 0.1 µM, first compound 10 µM
[13] = second compound 0.316 µM, first compound 0.0316 µM
[14] = second compound 0.316 µM, first compound 0.1 µM
[15] = second compound 0.316 µM, first compound 0.316 µM
[16] = second compound 0.316 µM, first compound 1 µM
[17] = second compound 0.316 µM, first compound 3.16 µM
[18] = second compound 0.316 µM, first compound 10 µM
[19] = second compound 1 µM, first compound 0.0316 µM
[20] = second compound 1 µM, first compound 0.1 µM
[21] = second compound 1 µM, first compound 0.316 µM
[22] = second compound 1 µM, first compound 1 µM
[23] = second compound 1 µM, first compound 3.16 µM
[24] = second compound 1 µM, first compound 10 µM
[25] = second compound 0.00316 µM, first compound 0.0316 µM
[26] = second compound 0.00316 µM, first compound 0.1 µM
[27] = second compound 0.00316 µM, first compound 0.316 µM
[28] = second compound 0.00316 µM, first compound 1 µM
[29] = second compound 0.00316 µM, first compound 3.16 µM
[30] = second compound 0.00316 µM, first compound 10 µM
[31] = second compound 0.01 µM, first compound 0.0316 µM
[32] = second compound 0.01 µM, first compound 0.1 µM
[33] = second compound 0.01 µM, first compound 0.316 µM
[34] = second compound 0.01 µM, first compound 1 µM
[35] = second compound 0.01 µM, first compound 3.16 µM
[36] = second compound 0.01 µM, first compound 10 µM
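Also: spheroids exposed to agents for seven days before readout.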
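For viability, T/C in this document: percent of vehicle DMSO control viability so 100% = untreated growth.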

CC1(C)CCC(CN2CCN(c3ccc(C(=O)NS(=O)(=O)c4ccc(NCC5CCOCC5)c([N+](=O)[O-])c4)c(Oc4cnc5[nH]ccc5c4)c3)CC2)=C(c2ccc(Cl)cc2)C1 + Cc1nc(NC(=O)N2CCCC2C(N)=O)sc1-c1ccnc(C(C)(C)C(F)(F)F)c1
IC50 (second compound 0.0316 µM): 5420 nM
IC50 (second compound 0.1 µM): 5200 nM
IC50 (second compound 0.316 µM): 4130 nM
IC50 (second compound 1 µM): 4080 nM
IC50 (second compound 3.16 µM): 2740 nM
IC50 (second compound 10 µM): < 31.6 nM
viability, T/C [1]: 91.7%
viability, T/C [2]: 77.8%
viability, T/C [3]: 96.2%
viability, T/C [4]: 96.8%
viability, T/C [5]: 89.8%
viability, T/C [6]: 4.76%
viability, T/C [7]: 83.1%
viability, T/C [8]: 87.5%
viability, T/C [9]: 83.2%
viability, T/C [10]: 80.9%
viability, T/C [11]: 94.4%
viability, T/C [12]: 2.88%
viability, T/C [13]: 92.8%
viability, T/C [14]: 86.1%
viability, T/C [15]: 75.5%
viability, T/C [16]: 84%
viability, T/C [17]: 64%
viability, T/C [18]: 3.65%
viability, T/C [19]: 63.6%
viability, T/C [20]: 63.6%
viability, T/C [21]: 64%
viability, T/C [22]: 65.6%
viability, T/C [23]: 63.1%
viability, T/C [24]: 3.88%
viability, T/C (second compound 3.16 µM, first compound 0.0316 µM): 59.1%
viability, T/C (second compound 3.16 µM, first compound 0.1 µM): 53.5%
viability, T/C (second compound 3.16 µM, first compound 0.316 µM): 46.3%
viability, T/C (second compound 3.16 µM, first compound 1 µM): 55.1%
viability, T/C (second compound 3.16 µM, first compound 3.16 µM): 49.4%
viability, T/C (second compound 3.16 µM, first compound 10 µM): 2.29%
viability, T/C (second compound 10 µM, first compound 0.0316 µM): 32.3%
viability, T/C (second compound 10 µM, first compound 0.1 µM): 39.4%
viability, T/C (second compound 10 µM, first compound 0.316 µM): 38.9%
viability, T/C (second compound 10 µM, first compound 1 µM): 34%
viability, T/C (second compound 10 µM, first compound 3.16 µM): 36.1%
viability, T/C (second compound 10 µM, first compound 10 µM): 1.57%

C[C@@H](NC(=O)c1ncnc(N)c1Cl)c1ncc(C(=O)Nc2cc(C(F)(F)F)c(Cl)cn2)s1 + COc1c(OCCCN2CCOCC2)ccc2c3n(c(=NC(=O)c4cnc(N)nc4)nc12)CCN3
IC50 (second compound 0.00316 µM): > 10000 nM
IC50 (second compound 0.01 µM): > 10000 nM
IC50 (second compound 0.0316 µM): > 10000 nM
IC50 (second compound 0.1 µM): < 31.6 nM
IC50 (second compound 0.316 µM): < 31.6 nM
IC50 (second compound 1 µM): < 31.6 nM
viability, T/C [25]: 89.6%
viability, T/C [26]: 77.8%
viability, T/C [27]: 104%
viability, T/C [28]: 84.7%
viability, T/C [29]: 94.5%
viability, T/C [30]: 85.8%
viability, T/C [31]: 81%
viability, T/C [32]: 71.4%
viability, T/C [33]: 79.5%
viability, T/C [34]: 77.5%
viability, T/C [35]: 72.4%
viability, T/C [36]: 84.2%
viability, T/C [1]: 69.6%
viability, T/C [2]: 66.1%
viability, T/C [3]: 80.5%
viability, T/C [4]: 56%
viability, T/C [5]: 62.1%
viability, T/C [6]: 59.6%
viability, T/C [7]: 37.6%
viability, T/C [8]: 39.1%
viability, T/C [9]: 39.9%
viability, T/C [10]: 37%
viability, T/C [11]: 43.3%
viability, T/C [12]: 32.1%
viability, T/C [13]: 18.4%
viability, T/C [14]: 16.6%
viability, T/C [15]: 21%
viability, T/C [16]: 17.7%
viability, T/C [17]: 17.2%
viability, T/C [18]: 9.8%
viability, T/C [19]: 5.39%
viability, T/C [20]: 5.07%
viability, T/C [21]: 5.62%
viability, T/C [22]: 6.77%
viability, T/C [23]: 5.91%
viability, T/C [24]: 1.42%

CC1(C)CCC(Nc2ncc(C(F)(F)F)c(-c3c[nH]c4c(P(C)(C)=O)c(C#N)ccc34)n2)CN1 (stereo unspecified) + COc1c(OCCCN2CCOCC2)ccc2c3n(c(=NC(=O)c4cnc(N)nc4)nc12)CCN3
IC50 (second compound 0.00316 µM): < 31.6 nM
IC50 (second compound 0.01 µM): < 31.6 nM
IC50 (second compound 0.0316 µM): < 31.6 nM
IC50 (second compound 0.1 µM): < 31.6 nM
IC50 (second compound 0.316 µM): < 31.6 nM
IC50 (second compound 1 µM): < 31.6 nM
viability, T/C [25]: 30%
viability, T/C [26]: 25.4%
viability, T/C [27]: 25.2%
viability, T/C [28]: 28.7%
viability, T/C [29]: 34.5%
viability, T/C [30]: 4.59%
viability, T/C [31]: 24.9%
viability, T/C [32]: 24.2%
viability, T/C [33]: 25.5%
viability, T/C [34]: 22.8%
viability, T/C [35]: 26.4%
viability, T/C [36]: 3.95%
viability, T/C [1]: 22%
viability, T/C [2]: 22.4%
viability, T/C [3]: 22.7%
viability, T/C [4]: 19.3%
viability, T/C [5]: 22.3%
viability, T/C [6]: 2.09%
viability, T/C [7]: 15.1%
viability, T/C [8]: 15.4%
viability, T/C [9]: 17.4%
viability, T/C [10]: 14.4%
viability, T/C [11]: 18.4%
viability, T/C [12]: 1.25%
viability, T/C [13]: 8.82%
viability, T/C [14]: 8.24%
viability, T/C [15]: 8.82%
viability, T/C [16]: 8.38%
viability, T/C [17]: 8.08%
viability, T/C [18]: 0.63%
viability, T/C [19]: 2.41%
viability, T/C [20]: 2.58%
viability, T/C [21]: 2.51%
viability, T/C [22]: 3.28%
viability, T/C [23]: 2.74%
viability, T/C [24]: 0.56%

Source: PubChem BioAssay AID1963985 (Molecular Pharmacology Branch, DTP, NCI, 2024)
